In paper PMC6613200 (International Journal of Nanomedicine, 2019):

How the values were obtained:
[1] = SPR binding of peptide aptamer to Au/Cys/carboxyl-GO chip; conditions: carboxyl-GO with peptide aptamer, 1:1 Langmuir model
BSA = assay: SPR selectivity, peptide vs interfering BSA; type: binding, bovine; conditions: mixture containing 20 nM BSA and 20 nM HSA with hCG; 100 μM peptide
HSA = assay: SPR selectivity, peptide vs interfering HSA; type: binding, human; conditions: mixture containing 20 nM BSA and 20 nM HSA with hCG; 100 μM peptide

KA ([1]; flow rate 30 µL/min): 2.81e+07 M⁻¹
KD (kd/ka) ([1]; flow rate 30 µL/min): 0.36×10^–7 M
association rate ka ([1]; flow rate 30 µL/min): 32.57 ×10[4] M^−1 s^−1
association rate ka ([1]; flow rate 60 µL/min): 13.75 ×10[4] M^−1 s^−1
association rate ka ([1]; flow rate 90 µL/min): 7.89 ×10[4] M^−1 s^−1
Substance: (N-)PPLRINRHILTR(-C) [peptide aptamer]
interaction of peptide with interfering protein (BSA): no significant interaction between the two proteins and the peptide
interaction of peptide with interfering protein (HSA): no significant interaction between the two proteins and the peptide
